The target in this assay is T1, recombinant human Cathepsin K (Homo sapiens, UniProt P43235).
T1 sequence (P43235 115-329): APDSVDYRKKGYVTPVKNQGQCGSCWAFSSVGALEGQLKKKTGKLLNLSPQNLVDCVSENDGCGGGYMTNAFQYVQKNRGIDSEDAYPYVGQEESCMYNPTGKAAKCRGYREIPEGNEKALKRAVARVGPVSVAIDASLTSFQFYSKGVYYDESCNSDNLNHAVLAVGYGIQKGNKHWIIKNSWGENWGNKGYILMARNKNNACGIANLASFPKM
The experiment in a line: Cathepsin K activity: inhibition of recombinant human Cathepsin K (Z-Phe-Arg-AMC fluorescence). In kind it is biochemical. Particulars: substrate Z-Phe-Arg-AMC, pH 5.5, fluorescence at 10 minutes, read-out: pIC50 (negative logarithm of the IC50 concentration) for inhibition of human cathepsin K (converted). The method, then:
To a 384 well microtitre plate is added 5 μl of a 100 μM solution of test compound in assay buffer (100 mM sodium acetate pH 5.5, 5 mM EDTA, 5 mM dithiothreitol) with 10% dimethylsulfoxide (DMSO), plus 10 μl of 100 μM solution of the substratre Z-Phe-Arg-AMC (Bachem; 7-amido-coumarine derivative of the dipeptide N-benzyloxycarbonyl-Phe-Arg-OH) in assay buffer and 25 μl of assay buffer. 10 μl of a 1 mg/l solution of activated recombinant human cathepsin K, in assay buffer, is then added to the well, yielding a final inhibitor concentration of 10 μM. Enzyme activity is determined by measuring the fluorescence of the liberated aminomethylcoumarin at […] using 390 nm excitation, at 10 minutes. Percentage enzyme activity is calculated by comparison of this activity to that of a solution containing no inhibitor. Compounds are subsequently subjected to a dose response curve analysis in order to determine IC50 values for active compounds (where IC50 is the concentration of test compound causing 50% inhibition of the enzymatic activity).
Compounds of the invention typically have a pIC50 (negative logarithm of the IC50 concentration) for inhibition of human cathepsin K of more than 6, preferably more than 7 and most preferably a pIC50 of more than 8, such as for the compounds of Examples 1, 2a, 2b, 3, 5, 6, 8, 12, 14, 13, 16k, 16n, 16o, 17, 22a, 22b, 22c

Where a name gives a salt, the structure may show the parent alone.

The source of these data is patent publication US7326715B2, “4-Phenyl-6-substituted-pyrimidine-2-carbonitrile derivatives” (N.V. Organon, priority 2005, dated 2008).

Turning to `N#Cc1nc(-c2cccc(C(F)(F)F)c2)cc(N2CCNCC2)n1` [Example 1, 4-(Piperazin-1-y)l-6-(3-trifluoromethylphenyl)-pyrimidine-2-carbonitrile], the IC50 is below 10 nM.

Regarding `COCCN1CCN(c2cc(-c3cccc(C(F)(F)F)c3)nc(C#N)n2)CC1` [Example 2a, 4-[4-(2-Methoxy-ethyl)-piperazin-1-yl]-6-(3-trifluoromethy-phenyl)-pyrimidine-2-carbonitrile], the IC50 is below 10 nM.

`N#Cc1nc(-c2cccc(C(F)(F)F)c2)cc(N2CCN(CC(N)=O)CC2)n1` [Example 2b, 4-(4-carbamoylmethyl-piperazin-1-yl)-6-(3-trifluoromethyl-phenyl)-pyrimidine-2-carbonitrile]: the IC50 was below 10 nM.

Turning to `N#Cc1nc(-c2cccc(C(F)(F)F)c2)cc(N2CCN(CCC(=O)O)CC2)n1` [Example 5, 4-[4-(2-carboxy-ethyl)-piperazin-1-yl]-6-(3-trifluoromethyl-phenyl)-pyrimidine-2-carbonitrile trifluoroacetic acid salt], the IC50 was below 10 nM.

In the case of `N#Cc1nc(-c2cccc(C(F)(F)F)c2)cc(N2CCN(CC3CC3)CC2)n1` [Example 6, 4-(4-Cyclopropylmethyl-piperazin-1-yl)-6-(trifluoromethyl-phenyl)-pyrimidine-2-carbonitrile trifluoroacetic acid salt], the IC50 is below 10 nM.

Turning to `N#Cc1nc(-c2cccc(C(F)(F)F)c2)cc(N2CCN(C3CC3)CC2)n1` [Example 8, 4-(4-Cyclopropyl-piperazin-1-yl)-6-(trifluoromethyl-phenyl)-pyrimidine-2-carbonitrile hydrochloric acid salt], the IC50 is below 10 nM.

Take `CN1CCN(c2cc(-c3cccc(C(F)(F)F)c3)nc(C#N)n2)CC1(C)C` [Example 12, 4-(3,3,4-Trimethyl-piperazin-1-yl)-6-(3-trifluoromethyl-phenyl)-pyrimidine-2-carbonitrile]: the IC50 is below 10 nM.

Consider `N#Cc1nc(-c2cccc(C(F)(F)F)c2)cc(N2CCCNCC2)n1` [Example 13, 4-[1,4]Diazepan-1-yl-6-(3-trifluoromethylphenyl)-pyrimidine-2-carbonitrile], for which the IC50 is below 10 nM.

For the compound `CN1CCCN(c2cc(-c3cccc(C(F)(F)F)c3)nc(C#N)n2)CC1` [Example 14, 4-(4-Methyl-[1,4]diazepan-1-yl)-6-(3-trifluoromethyl-phenyl)-pyrimidine-2-carbonitrile], the IC50 is below 10 nM.

For the compound `CN1CCC(N(C)c2cc(-c3cccc(C(F)(F)F)c3)nc(C#N)n2)CC1` [Example 16k, 4-[Methyl-(1-methyl-piperidin-4-yl)-amino]-6-(3-trifluoromethyl-phenyl)-pyrimidine-2-carbonitrile trifluoroacetic acid salt], the IC50 is below 10 nM.

On to `N#Cc1nc(NCc2nnn[nH]2)cc(-c2cccc(C(F)(F)F)c2)n1` [Example 16n, 4-[(1H-Tetrazol-5-ylmethyl)-amino]-6-(3-trifluoromethyl-phenyl)-pyrimidine-2-carbonitrile], for which the IC50 is below 10 nM.

On to `N#Cc1nc(NCC(=O)O)cc(-c2cccc(C(F)(F)F)c2)n1` [Example 16o, 4-(Carboxymethyl-amino)-6-(3-trifluoromethyl-phenyl)-pyrimidine-2-carbonitrile], for which the IC50 was below 10 nM.

With `COc1ccc(-c2cc(N3CCNCC3)nc(C#N)n2)cc1C(F)(F)F` [Example 17, 4-(4-Methoxy-3-trifluoromethyl-phenyl)-6-piperazin-1-yl-pyrimidine-2-carbonitrile], the IC50 is below 10 nM.

Regarding `N#Cc1nc(OCCN2CCCCC2)cc(-c2cccc(C(F)(F)F)c2)n1` [Example 22a, 4-(2-Piperidin-1-yl-ethoxy)-6-(3-trifluoromethyl-phenyl)-pyrimidine-2-carbonitrile], the IC50 was below 10 nM.

Consider `N#Cc1nc(OCCN2CCOCC2)cc(-c2cccc(C(F)(F)F)c2)n1` [Example 22b, 4-(2-Morpholin-4-yl-ethoxy)-6-(3-trifluoromethyl-phenyl)-pyrimidine-2-carbonitrile], for which the IC50 was below 10 nM.

On to `CCN(CC)CCOc1cc(-c2cccc(C(F)(F)F)c2)nc(C#N)n1` [Example 22c, 4-(2-Diethylamino-ethoxy)-6-(3-trifluoromethyl-phenyl)-pyrimidine-2-carbonitrile], for which the IC50 is below 10 nM.
